According to ChEMBL document CHEMBL5131392, “A novel ICG-labeled cyclic TMTP1 peptide dimer for sensitive tumor imaging and enhanced photothermal therapy in vivo” (Eur J Med Chem, 2022):
The source made the active and inactive calls. The rule behind the calls is not given here. Bridge positions count the residues as written; N and C are the ends. Square brackets hold non-standard residues; d marks the D form. Peptide text beside a SMILES is read from it. I, II: the chains in the order shown. * marks the point of attachment. X1 = CC1(C)C(/C=C/C=C/C=C/C=C2/N(CCCCCC(=O)*)c3ccc4ccccc4c3C2(C)C)=[N+](CCCCS(=O)(=O)[O-])c2ccc3ccccc3c21; PEG4 = NCCOCCOCCOCCOCCC(=O)O

Assays:
[1] = AUC 0 to t in Sprague-Dawley rat at 100 uM, iv measured up to 24 hrs by IVIS spectrum imaging analysis; format: ADME, organism-based; set-up: time < 24 hrs, dose 100 µM, route iv; details: in vivo
[2] = MRT 0 to t in Sprague-Dawley rat at 100 uM, iv measured up to 24 hrs by IVIS spectrum imaging analysis; format: ADME, organism-based; details: in vivo
[3] = Half life in Sprague-Dawley rat at 100 uM, iv measured up to 24 hrs by IVIS spectrum imaging analysis; format: ADME, organism-based; details: in vivo
[4] = Cmax in Sprague-Dawley rat at 100 uM, iv measured up to 24 hrs by IVIS spectrum imaging analysis; format: ADME, organism-based; set-up: time < 24 hrs, dose 100 µM, route iv; details: in vivo
4T1 [5] = experiment: Antitumor activity in mouse 4T1 cells allografted in BALB/c mouse assessed as increase in temperature of tumor site at 100 uM, iv measured after 12 hrs followed by 2.5 W/cm2 NIR laser irradiation for 3 mins by infrared thermal imaging analysis; format: functional
[6] = Drug uptake in tumor of mouse 4T1 cells allografted in BALB/c mouse assessed as increase in fluorescence signal at 30 uM, iv measured after 12 to 48 hrs by IVIS spectrum in vivo imaging analysis; format: ADME, organism-based, Neoplasm; details: time 12-48 hrs
4T1 [7] = experiment: Antitumor activity against mouse 4T1 cells allografted in BALB/c mouse assessed as inhibition of tumor growth at 100 uM, iv treated for 12 hrs followed by 2.5 W/cm2 NIR laser irradiation for 3 mins and measured every 2 days; format: functional, organism-based; details: time 2.0 day
4T1 [8] = experiment: Cytotoxicity against mouse 4T1 cells assessed as cell viability at higher concentration incubated for 24 hrs by CCK-8 assay relative to control; format: functional
4T1 [9] = experiment: Upregulation of XPNPEP expression in mouse 4T1 cells by Western blot analysis; format: functional, cell-based
[10] = Drug uptake in mouse 4T1 cells assessed as increase in fluorescence signal measured after 1 hr by flow cytometry analysis; format: ADME, cell-based; details: 4t1, 1 h
[11] = Biodistribution in BALB/c mouse assessed as increase in fluorescence signal at 30 uM, iv measured after 30 mins by NIR fluorescence imaging analysis; format: ADME, organism-based; details: in vivo, 0.5 h
[12] = Drug accumulation in BALB/c mouse liver assessed as increase in fluorescence intensity at 30 uM, iv measured after 30 mins by NIR fluorescence imaging analysis; format: ADME, organism-based; details: in vivo, 0.5 h
[13] = Drug accumulation in BALB/c mouse kidney assessed as increase in fluorescence intensity at 30 uM, iv measured after 2 hrs by NIR fluorescence imaging analysis; format: ADME, organism-based; details: in vivo
[14] = Drug uptake in tumor of mouse 4T1 cells allografted in BALB/c mouse assessed as increase in ratio of fluorescence signal in tumor to normal tissue at 30 uM, iv measured after 12 to 48 hrs by NIR fluorescence imaging analysis; format: ADME, organism-based, Neoplasm; details: in vivo, time 12-48 hrs
[15] = Drug uptake in tumor of mouse 4T1 cells allografted in BALB/c mouse assessed as increase in fluorescence signal at 30 uM, iv measured after 12 hrs by NIR fluorescence imaging analysis; format: ADME, organism-based, Neoplasm; details: in vivo
[16] = Drug uptake in lymph node of mouse 4T1 cells allografted in BALB/c mouse assessed as increase in fluorescence signal at 30 uM, iv measured after 24 to 48 hrs by NIR fluorescence imaging analysis; format: ADME, organism-based; details: in vivo, time 24-48 hrs
[17] = Drug uptake in lymph node of mouse 4T1 cells allografted in BALB/c mouse assessed as increase in ratio of fluorescence signal in tumor lymph node to normal lymph node at 30 uM, iv measured up to 48 hrs by NIR fluorescence imaging analysis; format: ADME, organism-based; details: in vivo
[18] = Toxicity in BALB/c mouse allografted with mouse 4T1 cells assessed as change in body weight at 100 uM, iv treated for 12 hrs followed by 2.5 W/cm2 NIR laser irradiation for 3 mins and measured every 2 days; format: organism-based; details: in vivo, 48 h, time 2 day
4T1 [19] = experiment: Induction of apoptosis in mouse 4T1 cells allografted in BALB/c mouse assessed as increase in total apoptotic cells at 100 uM, iv measured after 12 hrs followed by 2.5 W/cm2 NIR laser irradiation for 3 mins by hematoxylin and eosin staining based analysis; format: functional, organism-based
4T1 [20] = experiment: Induction of apoptosis in mouse 4T1 cells allografted in BALB/c mouse assessed as increase in total necrotic cells at 100 uM, iv measured after 12 hrs followed by 2.5 W/cm2 NIR laser irradiation for 3 mins by hematoxylin and eosin staining based analysis; format: functional, organism-based
4T1 [21] = experiment: Induction of apoptosis in mouse 4T1 cells allografted in BALB/c mouse assessed as increase in total apoptotic cells at 100 uM, iv measured after 12 hrs followed by 2.5 W/cm2 NIR laser irradiation for 3 mins by TUNEL staining based analysis; format: functional, organism-based
[22] = Toxicity in BALB/c mouse allografted with mouse 4T1 cells assessed as histopathological change in heart at 100 uM, iv measured after 12 hrs followed by 2.5 W/cm2 NIR laser irradiation for 3 mins by hematoxylin and eosin staining based analysis; format: organism-based; details: in vivo
[23] = Toxicity in BALB/c mouse allografted with mouse 4T1 cells assessed as histopathological change in liver at 100 uM, iv measured after 12 hrs followed by 2.5 W/cm2 NIR laser irradiation for 3 mins by hematoxylin and eosin staining based analysis; format: organism-based; details: in vivo
[24] = Toxicity in BALB/c mouse allografted with mouse 4T1 cells assessed as histopathological change in spleen at 100 uM, iv measured after 12 hrs followed by 2.5 W/cm2 NIR laser irradiation for 3 mins by hematoxylin and eosin staining based analysis; format: organism-based; details: in vivo
[25] = Toxicity in BALB/c mouse allografted with mouse 4T1 cells assessed as histopathological change in lung at 100 uM, iv measured after 12 hrs followed by 2.5 W/cm2 NIR laser irradiation for 3 mins by hematoxylin and eosin staining based analysis; format: organism-based; details: in vivo
[26] = Toxicity in BALB/c mouse allografted with mouse 4T1 cells assessed as histopathological change in kidney at 100 uM, iv measured after 12 hrs followed by 2.5 W/cm2 NIR laser irradiation for 3 mins by hematoxylin and eosin staining based analysis; format: organism-based; details: in vivo
[27] = Drug uptake in tumor of mouse 4T1 cells allografted in BALB/c mouse assessed as XPNPEP2 expression by […] based analysis; format: ADME, Neoplasm

`CC1(C)C(/C=C/C=C/C=C/C=C2\N(CCCCS(=O)(=O)[O-])c3ccc4ccccc4c3C2(C)C)=[N+](CCCCS(=O)(=O)[O-])c2ccc3ccccc3c21.[Na+]` [INDOCYANINE GREEN] showed an AUC(0-t) at 24 h, 100 µM [1] of 17.5 nM·h, an MRT last at 24 h, 100 µM [2] of 0.251 h and a half-life at 100 µM [3] of 0.4 h. It also gave a Cmax at 100 µM [4] of 0.0576 µM and a T (4T1 [5]) of 40 °C.
In the case of `CC(C)[C@@H]1NC(=O)[C@H](CC(N)=O)NC(=O)CNC(=O)[C@@H](NC(=O)CNC(=O)CCOCCOCCOCCOCCNC(=O)CCCCCN2/C(=C/C=C/C=C/C=C/C3=[N+](CCCCS(=O)(=O)[O-])c4ccc5ccccc5c4C3(C)C)C(C)(C)c3c2ccc2ccccc32)CSSC[C@@H](C(=O)O)NC(=O)CNC(=O)[C@H](CCC(N)=O)NC(=O)[C@H](CCCNC(=N)N)NC(=O)[C@H](C(C)C)NC1=O` ({X1-PEG4}-GCGNVVRQGC-OH; disulfide 2-10), the Drug uptake [6] is reported as “Active”, the T (4T1 [5]) is reported as 47 °C and the Activity (4T1 [7]) is reported as “Active”.
With `CC(C)[C@@H]1NC(=O)[C@H](CC(N)=O)NC(=O)CNC(=O)[C@@H](NC(=O)CNC(=O)CCOCCOCCOCCOCCNC(=O)CC[C@H](NC(=O)CCCCCN2/C(=C/C=C/C=C/C=C/C3=[N+](CCCCS(=O)(=O)[O-])c4ccc5ccccc5c4C3(C)C)C(C)(C)c3c2ccc2ccccc32)C(=O)NCCOCCOCCOCCOCCC(=O)NCC(=O)N[C@H]2CSSC[C@@H](C(=O)O)NC(=O)CNC(=O)[C@H](CCC(N)=O)NC(=O)[C@H](CCCNC(=N)N)NC(=O)[C@H](C(C)C)NC(=O)[C@H](C(C)C)NC(=O)[C@H](CC(N)=O)NC(=O)CNC2=O)CSSC[C@@H](C(=O)O)NC(=O)CNC(=O)[C@H](CCC(N)=O)NC(=O)[C@H](CCCNC(=N)N)NC(=O)[C@H](C(C)C)NC1=O` (I: X1-E[PEG4]GCGNVVRQGC-OH / II: [PEG4]GCGNVVRQGC-OH; amide I:1-II:N; disulfide I:4-I:12, II:3-II:11) the cell viability (4T1 [8]) was greater than 90%, the Activity (4T1 [9]) was “Active” and the Drug uptake [10] was “Active”. The Drug uptake [11] was “Active”, the Drug uptake [12] was “Active” and the Drug uptake [13] was “Active”. For the same compound, the AUC(0-t) at 24 h, 100 µM [1] was 1290 nM·h, the MRT last at 24 h, 100 µM [2] was 5.77 h and the half-life at 100 µM [3] was 5.9 h. The Cmax at 100 µM [4] was 0.212 µM, the Drug uptake [6] was “Active” and the T/C [14] was 40. The Drug uptake [15] was “Active”, the Drug uptake [16] was “Active” and the Drug uptake [17] was “Active”. For the same compound, the T (4T1 [5]) was 51 °C, the Activity (4T1 [7]) was “Active” and the Activity [18] was “Non-Toxic”. The Activity (4T1 [19]) was “Active”, the Activity (4T1 [20]) was “Active” and the Activity (4T1 [21]) was “Active”. For the same compound, the Activity [22] was “Non-Toxic”, the Activity [23] was “Non-Toxic” and the Activity [24] was “Non-Toxic”. The Activity [25] was “Non-Toxic”, the Activity [26] was “Non-Toxic” and the Drug uptake [27] was “Active”.
